Assay results: ChEMBL document CHEMBL1144978, “A new series of potent benzodiazepine gamma-secretase inhibitors” (Bioorg Med Chem Lett, 2003)

Experiment: Inhibitory activity against human gamma-secretase using SH-SY5Y cells.
Format: cell-based

SMILES	IC50
CN1C(=O)C(NC(=O)CCc2ccc(F)cc2)N=C(c2ccc(C(N)=O)cc2)c2ccccc21 (centres undefined)	110 nM
CN1C(=O)C(NC(=O)CCc2ccc(F)c(F)c2)N=C(c2ccc(C(N)=O)cc2)c2ccccc21 (centres undefined)	29 nM
CN1C(=O)C(NC(=O)CCc2cc(F)cc(F)c2)N=C(c2ccc(C(N)=O)cc2)c2ccccc21 (centres undefined)	110 nM
CN1C(=O)C(NC(=O)CCc2cccc(Cl)c2Cl)N=C(c2ccc(C(N)=O)cc2)c2ccccc21 (centres undefined)	22 nM
Cc1ccc(CCC(=O)NC2N=C(c3ccc(C(N)=O)cc3)c3ccccc3N(C)C2=O)cc1 (centres undefined)	180 nM
CN1C(=O)[C@@H](NC(=O)C(Cc2ccc(Cl)c(Cl)c2)c2ccsc2)N=C(c2ccccc2)c2ccccc21 (some centres undefined)	100 nM
CN1C(=O)C(NC(=O)CCc2cc(Cl)cc(Cl)c2)N=C(c2ccc(C(N)=O)cc2)c2ccccc21 (centres undefined)	40 nM
CN1C(=O)C(NC(=O)CCc2c(Cl)cccc2Cl)N=C(c2ccc(C(N)=O)cc2)c2ccccc21 (centres undefined)	3200 nM
CN1C(=O)C(NC(=O)CCc2ccc(N)cc2)N=C(c2ccc(C(N)=O)cc2)c2ccccc21 (centres undefined)	> 10000 nM
COc1ccccc1CCC(=O)NC1N=C(c2ccc(C(N)=O)cc2)c2ccccc2N(C)C1=O (centres undefined)	5100 nM
CN1C(=O)[C@@H](NC(=O)[C@@H](Cc2ccc(Cl)c(Cl)c2)NC(=O)OC(C)(C)C)N=C(c2ccccc2)c2ccccc21	750 nM
CN1C(=O)C(NC(=O)CCc2cccc(O)c2)N=C(c2ccc(C(N)=O)cc2)c2ccccc21 (centres undefined)	6800 nM
CN1C(=O)[C@@H](NC(=O)[C@@H](Cc2ccc(Cl)c(Cl)c2)N2CCCC2)N=C(c2ccccc2)c2ccccc21	405 nM
C[C@@H](Cc1ccc(Cl)cc1Cl)C(=O)N[C@H]1N=C(c2ccccc2)c2ccccc2N(C)C1=O	820 nM
COc1ccc(CCC(=O)NC2N=C(c3ccc(C(N)=O)cc3)c3ccccc3N(C)C2=O)cc1 (centres undefined)	1340 nM
CN1C(=O)[C@@H](NC(=O)[C@H](Cc2ccc(Cl)c(Cl)c2)c2ccc(F)cc2)N=C(c2ccccc2)c2ccccc21	15 nM
COc1cccc(CCC(=O)NC2N=C(c3ccc(C(N)=O)cc3)c3ccccc3N(C)C2=O)c1 (centres undefined)	1600 nM
CC(Cc1ccc(Cl)cc1Cl)C(=O)NC1N=C(c2ccc(C(N)=O)cc2)c2ccccc2N(C)C1=O (centres undefined)	8 nM
CN1C(=O)[C@@H](NC(=O)[C@H](Cc2ccc(F)c(F)c2)c2ccc(F)cc2)N=C(c2ccccc2)c2ccccc21	3.8 nM
CN1C(=O)C(NC(=O)CCc2ccc(Cl)cc2)N=C(c2ccc(C(N)=O)cc2)c2ccccc21 (centres undefined)	15 nM
CN1C(=O)C(NC(=O)CCc2cccc(Cl)c2)N=C(c2ccc(C(N)=O)cc2)c2ccccc21 (centres undefined)	93 nM
CN1C(=O)C(NC(=O)CCCc2ccccc2)N=C(c2ccc(C(N)=O)cc2)c2ccccc21 (centres undefined)	5000 nM
CN1C(=O)C(NC(=O)CCc2ccc(Cl)cc2Cl)N=C(c2ccc(C(N)=O)cc2)c2ccccc21 (centres undefined)	33 nM
CN1C(=O)C(NC(=O)CCc2ccc(Cl)c(Cl)c2)N=C(c2ccc(C(N)=O)cc2)c2ccccc21 (centres undefined)	12 nM
CN1C(=O)[C@@H](NC(=O)[C@@H](Cc2ccc(Cl)c(Cl)c2)c2ccccc2)N=C(c2ccccc2)c2ccccc21	72 nM

SMILES	IC50
CN1C(=O)C(NC(=O)CCc2ccc(O)cc2)N=C(c2ccc(C(N)=O)cc2)c2ccccc21 (centres undefined)	> 10000 nM
C[C@@H](Cc1ccc(Cl)c(Cl)c1)C(=O)N[C@H]1N=C(c2ccccc2)c2ccccc2N(C)C1=O	320 nM
CN1C(=O)C(NC(=O)C(C)(C)Cc2ccc(Cl)cc2Cl)N=C(c2ccc(C(N)=O)cc2)c2ccccc21 (centres undefined)	400 nM
CN1C(=O)C(NC(=O)Cc2ccc(Cl)cc2Cl)N=C(c2ccc(C(N)=O)cc2)c2ccccc21 (centres undefined)	> 10000 nM
CN1C(=O)C(NC(=O)CCc2ccccc2)N=C(c2ccc(C(N)=O)cc2)c2ccccc21 (centres undefined)	340 nM
C[C@@H](Cc1ccc(F)c(F)c1)C(=O)N[C@H]1N=C(c2ccccc2)c2ccccc2N(C)C1=O	220 nM
CN1C(=O)[C@@H](NC(=O)C(Cc2ccc(Cl)c(Cl)c2)c2cccs2)N=C(c2ccccc2)c2ccccc21 (some centres undefined)	37 nM
CN1C(=O)C(NC(=O)/C=C/c2ccc(Cl)cc2Cl)N=C(c2ccc(C(N)=O)cc2)c2ccccc21 (centres undefined)	4700 nM
Cc1nc(C(Cc2ccc(Cl)c(Cl)c2)C(=O)N[C@H]2N=C(c3ccccc3)c3ccccc3N(C)C2=O)cs1 (some centres undefined)	640 nM
CN1C(=O)[C@@H](NC(=O)[C@H](Cc2ccc(Cl)c(Cl)c2)c2ccc(Br)cc2)N=C(c2ccccc2)c2ccccc21	100 nM
CN1C(=O)C(NC(=O)CCc2ccccc2Cl)N=C(c2ccc(C(N)=O)cc2)c2ccccc21 (centres undefined)	305 nM
CN1C(=O)C(NC(=O)CCc2cc(Cl)ccc2Cl)N=C(c2ccc(C(N)=O)cc2)c2ccccc21 (centres undefined)	60 nM
CN1C(=O)[C@@H](NC(=O)[C@H](Cc2ccc(Cl)c(Cl)c2)c2ccccc2)N=C(c2ccccc2)c2ccccc21	180 nM
C[C@@H](Cc1ccc(Cl)cc1Cl)C(=O)N[C@@H]1N=C(c2ccccc2)c2ccccc2N(C)C1=O	> 10000 nM
CN1C(=O)C(NC(=O)CCc2cc(C(F)(F)F)cc(C(F)(F)F)c2)N=C(c2ccc(C(N)=O)cc2)c2ccccc21 (centres undefined)	400 nM
CN1C(=O)[C@@H](NC(=O)[C@H](Cc2ccc(Cl)c(Cl)c2)N2CCCC2)N=C(c2ccccc2)c2ccccc21	350 nM
C[C@H](Cc1ccc(Cl)cc1Cl)C(=O)NC1N=C(c2ccc(C(N)=O)cc2)c2ccccc2N(C)C1=O (single isomer, unassigned; diastereomer A)	42 nM
C[C@@H](Cc1ccc(Cl)cc1Cl)C(=O)NC1N=C(c2ccc(C(N)=O)cc2)c2ccccc2N(C)C1=O (single isomer, unassigned; diastereomer A)	500 nM
CN1C(=O)[C@@H](NC(=O)C(Cc2ccc(Cl)c(Cl)c2)c2ccncc2)N=C(c2ccccc2)c2ccccc21 (single isomer, unassigned; diastereomer A)	1360 nM
CC(C)C(Cc1ccc(Cl)c(Cl)c1)C(=O)N[C@H]1N=C(c2ccccc2)c2ccccc2N(C)C1=O (single isomer, unassigned; diastereomer A)	440 nM
C[C@H](Cc1ccc(Cl)cc1Cl)C(=O)NC1N=C(c2ccc(C(N)=O)cc2)c2ccccc2N(C)C1=O (single isomer, unassigned; diastereomer B)	920 nM
C[C@@H](Cc1ccc(Cl)cc1Cl)C(=O)NC1N=C(c2ccc(C(N)=O)cc2)c2ccccc2N(C)C1=O (single isomer, unassigned; diastereomer B)	1.9 nM
CN1C(=O)[C@@H](NC(=O)C(Cc2ccc(Cl)c(Cl)c2)c2ccncc2)N=C(c2ccccc2)c2ccccc21 (single isomer, unassigned; diastereomer B)	190 nM
CC(C)C(Cc1ccc(Cl)c(Cl)c1)C(=O)N[C@H]1N=C(c2ccccc2)c2ccccc2N(C)C1=O (single isomer, unassigned; diastereomer B)	240 nM
